According to patent US20250127732A1 (AXSOME THERAPEUTICS, INC., priority 2018, published 2025):

Key:
[1] = Part 3: randomized, double-blind, placebo-controlled multiple-dose trial of S- and R-bupropion with pharmacokinetic sampling (plasma concentrations Day 7); assay type: in vivo; settings: human, 105 mg BID SR tablets oral, fasting, Day 7 at 3-4 hours after dosing, n = 15
Method: A randomized, double-blind, multiple-dose, placebo-controlled, parallel group trial was conducted to examine the safety and tolerability of the pure S-and R-enantiomers of bupropion, with pharmacokinetic sampling.

[2] = clinical; settings: human, in vivo, po, 105 mg
Description: Tablet dosing was escalated from once daily for Days 1 to 3, to twice daily thereafter with a final morning dose on Day 8.

Compound	Mean concentration of bupropion [1] [ng/mL]	AUC(0-t) at 12 h [2] [ng·h/mL]
C[C@@H](NC(C)(C)C)C(=O)c1cccc(Cl)c1 [R-bupropion, (R)-bupropion, reference compound]	15.1	–
C[C@H](NC(C)(C)C)C(=O)c1cccc(Cl)c1 [S-bupropion, (S)-bupropion]	170.9	793
